This experiment concerns RS4; 11 with G101V mutation. In words: In vitro anti-proliferation assay (ATPlite luminescence) in BCL-2-dependent ALL cell line RS4;11 with G101V mutation. The format is cell-based. The note with it: cellular anti-proliferative IC50, about 72 hours, medium with 10% FBS, ATPlite; read-out: RS411-G101V IC50. How it is done: Cell antiproliferation was assayed by PerkinElmer ATPlite™ Luminescence Assay System. Briefly, the various test cancer cell lines were plated at a density of about 1×10^4 cells per well in Costar 96-well plates, and were incubated with different concentrations of compounds for about 72 hours in medium supplemented with 10% FBS. One lyophilized substrate solution vial was then reconstituted by adding 5 mL of substrate buffer solution, and was agitated gently until the solution was homogeneous. About 50 μL of mammalian cell lysis solution was added to 100 μL of cell suspension per well of a microplate, and the plate was shaken for about five minutes in an orbital shaker at ˜700 rpm. This procedure was used to lyse the cells and to stabilize the ATP. Next, 50 μL substrate solution was added to the wells and microplate was shaken for five minutes in an orbital shaker at ˜700 rpm. Finally, the luminescence was measured by a PerkinElmer TopCount® Microplate Scintillation Counter. Such assays, carried out with a range of doses of test compounds, allowed the determination of the cellular anti-antiproliferative IC50 of the compounds of the present invention.
The following table lists the IC50 values of another study for certain compounds of the invention.
(In general: In ATP-based viability assays light output follows the ATP content of the culture.)

A word on the IC50: it is the concentration that inhibits the measured activity by half. In the case of `COc1cc(CN2CCN(C3CC4(CCN(c5ccc(C(=O)NS(=O)(=O)c6ccc(NCC7CCC(C)(O)CC7)c([N+](=O)[O-])c6)c(N6c7cc8cc[nH]c8nc7O[C@H]7COCC[C@@H]76)c5)CC4)C3)[C@@H](c3ccccc3OC(C)C)C2)cnc1N1CCOCC1` (stereo partly drawn) [Example 119, N-((4-((((1r,4r)-4-hydroxy-4-methylcyclohexyl)methyl)amino)-3-nitrophenyl)sulfonyl)-4-(2-((S)-2-(2-isopropoxyphenyl)-4-((5-(methoxy-d3)-6-morpholinopyridin-3-yl)methyl)piperazin-1-yl)-7-azaspiro[3.5]nonan-7-yl)-2-((5aS,9aR)-6,7,9,9a-tetrahydro-1H-pyrano[3,4-b]pyrrolo[3′,2′:5,6]pyrido[3,2-e][1,4]oxazin-5(5aH)-yl)benzamide], the IC50 is 0.0146 µM.
As for `COc1cc(CN2CCN([C@@H]3CC4(CCN(c5ccc(C(=O)NS(=O)(=O)c6ccc(NCC7CCC(C)(O)CC7)c([N+](=O)[O-])c6)c(N6c7cc8cc[nH]c8nc7O[C@H]7COCC[C@@H]76)c5)CC4)[C@@H]3C)[C@@H](c3ccccc3OC(C)C)C2)cnc1N1CCOCC1` (stereo partly drawn) [Example 120, 2-[(3R,8S)-2,5-dioxa-9,15,17-triazatetracyclo[8.7.0.0^{3,8}.0^{12,16}]heptadeca-1(10),11,13,16-tetraen-9-yl]-4-[(1S,2R)-2-[(2S)-2-(2-isopropoxyphenyl)-4-{[5-methoxy-6-(morpholin-4-yl)pyridin-3-yl]methyl}piperazin-1-yl]-1-methyl-7-azaspiro[3.5]nonan-7-yl]-N-[3-nitro-4-({[(1r,4r)-4-hydroxy-4-methylcyclohexyl]methyl}amino)benzenesulfonyl]benzamide], the figure is 0.147 µM; as for `COc1cc(CN2CCN([C@@H]3CC4(CCN(c5ccc(C(=O)NS(=O)(=O)c6ccc(NCC7CCC(C)(O)CC7)c([N+](=O)[O-])c6)c(N6c7cc8cc[nH]c8nc7O[C@H]7COCC[C@@H]76)c5)CC4)[C@H]3C)[C@@H](c3ccccc3OC(C)C)C2)cnc1N1CCOCC1` (stereo partly drawn) [Example 121, 2-[(3R,8S)-2,5-dioxa-9,15,17-triazatetracyclo[8.7.0.0^{3,8}.0^{12,16}]heptadeca-1(10),11,13,16-tetraen-9-yl]-4-[(1R,2R)-2-[(2S)-2-(2-isopropoxyphenyl)-4-{[5-methoxy-6-(morpholin-4-yl)pyridin-3-yl]methyl}piperazin-1-yl]-1-methyl-7-azaspiro[3.5]nonan-7-yl]-N-[3-nitro-4-({[(1r,4r)-4-hydroxy-4-methylcyclohexyl]methyl}amino)benzenesulfonyl]benzamide], 0.0479 µM.
Regarding `COc1cc(CN2CCN(C3CC4(CCN(c5ccc(C(=O)NS(=O)(=O)c6ccc(NCC7CCC(C)(O)CC7)c([N+](=O)[O-])c6)c(N6c7cc8c(F)c[nH]c8nc7O[C@H]7COCC[C@@H]76)c5)CC4)C3)[C@@H](c3ccccc3OC(C)C)C2)cnc1N1CCOCC1` (stereo partly drawn) [Example 122, 2-[(3R,8S)-13-fluoro-2,5-dioxa-9,15,17-triazatetracyclo[8.7.0.0^{3,8}.0^{12,16}]heptadeca-1(10),11,13,16-tetraen-9-yl]-4-{2-[(2S)-2-(2-isopropoxyphenyl)-4-{[5-methoxy-6-(morpholin-4-yl)pyridin-3-yl]methyl}piperazin-1-yl]-7-azaspiro[3.5]nonan-7-yl}-N-[3-nitro-4-({[(1r,4r)-4-hydroxy-4-methylcyclohexyl]methyl}amino)benzenesulfonyl]benzamide], the IC50 worked out at 0.01 µM.
As to `COc1cc(CN2CCN(C3CC4(CCN(c5ccc(C(=O)NS(=O)(=O)c6ccc(NCC7CCC(C)(O)CC7)c([N+](=O)[O-])c6)c(N6c7cc8cc[nH]c8nc7O[C@H]7COCC[C@@H]76)c5)CC4)C3)[C@H](c3ccccc3C)C2)cnc1N1CCOCC1` (stereo partly drawn) [Example 123, N-((4-((((1r,4r)-4-hydroxy-4-methylcyclohexyl)methyl)amino)-3-nitrophenyl)sulfonyl)-4-(2-((R)-4-((5-methoxy-6-morpholinopyridin-3-yl)methyl)-2-(o-tolyl)piperazin-1-yl)-7-azaspiro[3.5]nonan-7-yl)-2-((5aS,9aR)-6,7,9,9a-tetrahydro-1H-pyrano[3,4-b]pyrrolo[3′,2′:5,6]pyrido[3,2-e][1,4]oxazin-5(5aH)-yl)benzamide], the IC50 came to 0.0029 µM.
As for `COc1cc(CN2CCN(C3CC4(CCN(c5ccc(C(=O)NS(=O)(=O)c6ccc(NCC7CCC(C)(O)CC7)c([N+](=O)[O-])c6)c(N6c7cc8cc[nH]c8nc7O[C@H]7COCC[C@@H]76)c5)CC4)C3)[C@H](c3ccccc3C)C2)cnc1N1CCOCC1` (stereo partly drawn) [Example 124, N-((4-((((1r,4r)-4-hydroxy-4-methylcyclohexyl)methyl)amino)-3-nitrophenyl)sulfonyl)-4-(2-((R)-4-((5-(methoxy-d3)-6-morpholinopyridin-3-yl)methyl)-2-(o-tolyl)piperazin-1-yl)-7-azaspiro[3.5]nonan-7-yl)-2-((5aS,9aR)-6,7,9,9a-tetrahydro-1H-pyrano[3,4-b]pyrrolo[3′,2′:5,6]pyrido[3,2-e][1,4]oxazin-5(5aH)-yl)benzamide], the figure is 0.002 µM; as for `Cc1ccccc1[C@@H]1CN(Cc2cnc3c(c2)OCCO3)CCN1C1CC2(CCN(c3ccc(C(=O)NS(=O)(=O)c4ccc(NCC5CCC(C)(O)CC5)c([N+](=O)[O-])c4)c(N4c5cc6cc[nH]c6nc5O[C@H]5COCC[C@@H]54)c3)CC2)C1` (stereo partly drawn) [Example 125, 2-[(3R,8S)-2,5-dioxa-9,15,17-triazatetracyclo[8.7.0.0^{3,8}.0^{12,16}]heptadeca-1(10),11,13,16-tetraen-9-yl]-4-{2-[(2R)-4-{2H,3H-[1,4]dioxino[2,3-b]pyridin-7-ylmethyl}-2-(2-methylphenyl)piperazin-1-yl]-7-azaspiro[3.5]nonan-7-yl}-N-[3-nitro-4-({[(1r,4r)-4-hydroxy-4-methylcyclohexyl]methyl}amino)benzenesulfonyl]benzamide], 0.0139 µM; as for `COc1cc(CN2CCN(C3CC4(CCN(c5ccc(C(=O)NS(=O)(=O)c6ccc(NCC7CCC(C)(O)CC7)c([N+](=O)[O-])c6)c(N6c7cc8cc[nH]c8nc7O[C@H]7COCC[C@@H]76)c5)CC4)C3)[C@@H](c3ccccc3OC(C)C)C2)cnc1N1CCOC[C@@H]1C` (stereo partly drawn) [Example 126, N-((4-((((1r,4r)-4-hydroxy-4-methylcyclohexyl)methyl)amino)-3-nitrophenyl)sulfonyl)-4-(2-((S)-2-(2-isopropoxyphenyl)-4-((5-methoxy-6-((S)-3-methylmorpholino)pyridin-3-yl)methyl)piperazin-1-yl)-7-azaspiro[3.5]nonan-7-yl)-2-((5aS,9aR)-6,7,9,9a-tetrahydro-1H-pyrano[3,4-b]pyrrolo[3′,2′:5,6]pyrido[3,2-e][1,4]oxazin-5(5aH)-yl)benzamide], 0.0117 µM.
With `CC(C)Oc1ccccc1[C@H]1CN(Cc2ccnc3c2OCC(C)(C)O3)CCN1C1CC2(CCN(c3ccc(C(=O)NS(=O)(=O)c4ccc(NCC5CCC(C)(O)CC5)c([N+](=O)[O-])c4)c(N4c5cc6cc[nH]c6nc5O[C@H]5COCC[C@@H]54)c3)CC2)C1` (stereo partly drawn) [Example 127, 4-(2-((S)-4-((3,3-dimethyl-2,3-dihydro-[1,4]dioxino[2,3-b]pyridin-8-yl)methyl)-2-(2-isopropoxyphenyl)piperazin-1-yl)-7-azaspiro[3.5]nonan-7-yl)-N-((4-((((1r,4r)-4-hydroxy-4-methylcyclohexyl)methyl)amino)-3-nitrophenyl)sulfonyl)-2-((5aS,9aR)-6,7,9,9a-tetrahydro-1H-pyrano[3,4-b]pyrrolo[3′,2′:5,6]pyrido[3,2-e][1,4]oxazin-5(5aH)-yl)benzamide], the IC50 was determined as 0.0081 µM.
Regarding `CC(C)Oc1ccccc1[C@H]1CN(Cc2ccc(N3CCOCC3)cn2)CCN1C1CC2(CCN(c3ccc(C(=O)NS(=O)(=O)c4ccc(NCC5CCC(C)(O)CC5)c([N+](=O)[O-])c4)c(N4c5cc6cc[nH]c6nc5O[C@H]5COCC[C@@H]54)c3)CC2)C1` (stereo partly drawn) [Example 128, N-((4-((((1r,4r)-4-hydroxy-4-methylcyclohexyl)methyl)amino)-3-nitrophenyl)sulfonyl)-4-(2-((S)-2-(2-isopropoxyphenyl)-4-((5-morpholinopyridin-2-yl)methyl)piperazin-1-yl)-7-azaspiro[3.5]nonan-7-yl)-2-((5aS,9aR)-6,7,9,9a-tetrahydro-1H-pyrano[3,4-b]pyrrolo[3′,2′:5,6]pyrido[3,2-e][1,4]oxazin-5(5aH)-yl)benzamide], the half-inhibitory concentration (IC50) amounted to 0.0222 µM.
In the case of `COc1cc(CN2CCN(C3CC4(CCN(c5ccc(C(=O)NS(=O)(=O)c6ccc(NCC7CCC(C)(O)CC7)c([N+](=O)[O-])c6)c(N6c7cc8cc[nH]c8nc7O[C@H]7COCC[C@@H]76)c5)CC4)C3)[C@@H](c3ccccc3OC(C)C)C2)cc2cc(C)oc12` (stereo partly drawn) [Example 129, N-((4-((((1r,4r)-4-hydroxy-4-methylcyclohexyl)methyl)amino)-3-nitrophenyl)sulfonyl)-4-(2-((S)-2-(2-isopropoxyphenyl)-4-((7-methoxy-2-methylbenzofuran-5-yl)methyl)piperazin-1-yl)-7-azaspiro[3.5]nonan-7-yl)-2-((5aS,9aR)-6,7,9,9a-tetrahydro-1H-pyrano[3,4-b]pyrrolo[3′,2′:5,6]pyrido[3,2-e][1,4]oxazin-5(5aH)-yl)benzamide], the IC50 was determined as 0.0339 µM.

For the origin of these results see patent publication US20250114374A1, “BCL-2 INHIBITORS” (Newave Pharmaceutical Inc., priority 2021, published 2025).
